Measurements taken from ChEMBL document CHEMBL1909046, “DrugMatrix in vitro pharmacology data”.

Key:
[1] = target: T1, Vasoactive intestinal polypeptide receptor 1 (Homo sapiens, UniProt P32241); format: cell membranes, Membrane; conditions: ht-29; also: in other assays of this panel Not Active means under 50% inhibition at 10 µM
T1 sequence (P32241 whole entry): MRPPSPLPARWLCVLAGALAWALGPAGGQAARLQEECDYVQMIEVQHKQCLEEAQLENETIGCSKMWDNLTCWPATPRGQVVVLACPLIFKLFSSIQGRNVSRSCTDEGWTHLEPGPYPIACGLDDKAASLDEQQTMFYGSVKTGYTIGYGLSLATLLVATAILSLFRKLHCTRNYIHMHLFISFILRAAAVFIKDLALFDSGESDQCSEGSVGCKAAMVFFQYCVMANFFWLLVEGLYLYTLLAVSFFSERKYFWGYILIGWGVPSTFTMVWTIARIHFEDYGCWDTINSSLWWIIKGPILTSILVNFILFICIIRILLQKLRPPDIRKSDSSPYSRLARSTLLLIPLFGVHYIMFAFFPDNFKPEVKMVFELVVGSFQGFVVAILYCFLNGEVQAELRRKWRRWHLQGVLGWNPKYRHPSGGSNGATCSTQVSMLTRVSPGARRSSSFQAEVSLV

[2] = target: T2, 3-hydroxy-3-methylglutaryl-coenzyme A reductase (Homo sapiens, UniProt P04035); design: species or system Escherichia coli;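 also: enzyme inhibition assay of HMG-CoA reductase using radiolabeled [14C]HMG-CoA as substrate; in other assays of this panel Not Active means under 50% inhibition at 10 µM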
T2 sequence (P04035 whole entry): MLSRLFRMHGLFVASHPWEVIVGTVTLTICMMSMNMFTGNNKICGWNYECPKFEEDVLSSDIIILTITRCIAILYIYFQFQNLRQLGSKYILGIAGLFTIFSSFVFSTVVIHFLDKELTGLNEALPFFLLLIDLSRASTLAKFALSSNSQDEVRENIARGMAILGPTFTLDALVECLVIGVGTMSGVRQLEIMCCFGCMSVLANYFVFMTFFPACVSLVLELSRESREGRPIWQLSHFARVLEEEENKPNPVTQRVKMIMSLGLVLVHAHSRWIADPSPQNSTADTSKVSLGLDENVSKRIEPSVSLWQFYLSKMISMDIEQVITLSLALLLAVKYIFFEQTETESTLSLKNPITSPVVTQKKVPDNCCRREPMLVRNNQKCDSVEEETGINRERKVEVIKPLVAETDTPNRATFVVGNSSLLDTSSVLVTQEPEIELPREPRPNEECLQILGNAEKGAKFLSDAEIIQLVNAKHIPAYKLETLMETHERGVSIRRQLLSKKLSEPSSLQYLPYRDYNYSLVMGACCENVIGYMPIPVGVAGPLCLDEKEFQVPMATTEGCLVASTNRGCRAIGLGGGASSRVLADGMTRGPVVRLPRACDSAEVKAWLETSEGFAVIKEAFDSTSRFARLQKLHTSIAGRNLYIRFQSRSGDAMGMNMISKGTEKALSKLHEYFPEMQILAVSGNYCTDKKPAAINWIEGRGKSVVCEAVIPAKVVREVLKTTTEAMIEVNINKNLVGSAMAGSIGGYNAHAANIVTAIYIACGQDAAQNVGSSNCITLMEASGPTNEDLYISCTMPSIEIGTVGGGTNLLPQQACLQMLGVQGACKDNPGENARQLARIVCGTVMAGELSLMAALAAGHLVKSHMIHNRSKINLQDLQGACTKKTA

[3] = DRUGMATRIX: Imidazoline I2, Central radioligand binding (ligand: [3H] Idazoxan); format: cell membranes, Rattus norvegicus, Wistar, Cerebral cortex, Membrane; conditions: Not Active = under 50% inhibition at 10 µM
[4] = target: Platelet-activating factor receptor (Homo sapiens, UniProt P25105); experiment: biochemical; format: tissue-based; conditions: platelet; also: in other assays of this panel Not Active means under 50% inhibition at 10 µM
[5] = DRUGMATRIX: Purinergic P2X radioligand binding (ligand: [3H] alpha, beta-Methylene-ATP); format: cell membranes, Oryctolagus cuniculus, New Zealand albino, Urinary bladder, Membrane; conditions: Not Active = under 50% inhibition at 10 µM
[6] = target: T3, 5-hydroxytryptamine receptor 1A (Rattus norvegicus, UniProt P19327); format: cell membranes, CHO-K1, Membrane; conditions: cho-k1; also: in other assays of this panel Not Active means under 50% inhibition at 10 µM
T3 sequence (P19327 whole entry): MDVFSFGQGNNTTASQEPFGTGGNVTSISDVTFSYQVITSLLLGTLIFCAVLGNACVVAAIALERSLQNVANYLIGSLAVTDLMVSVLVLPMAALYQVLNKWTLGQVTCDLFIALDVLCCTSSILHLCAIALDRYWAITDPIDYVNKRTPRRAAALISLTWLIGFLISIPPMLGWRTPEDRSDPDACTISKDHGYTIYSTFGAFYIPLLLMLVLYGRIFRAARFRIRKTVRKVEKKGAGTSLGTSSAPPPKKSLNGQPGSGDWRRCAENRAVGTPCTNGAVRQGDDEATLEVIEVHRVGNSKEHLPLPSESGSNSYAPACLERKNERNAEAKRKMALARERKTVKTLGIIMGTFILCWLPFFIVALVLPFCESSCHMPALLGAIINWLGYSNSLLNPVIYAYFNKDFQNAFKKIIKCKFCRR

[7] = target: T4, Cytochrome P450 2A6 (Homo sapiens, UniProt P11509); conditions: bti-tn-5b1-4; also: in other assays of this panel Not Active means under 50% inhibition at 10 µM
T4 sequence (P11509 whole entry): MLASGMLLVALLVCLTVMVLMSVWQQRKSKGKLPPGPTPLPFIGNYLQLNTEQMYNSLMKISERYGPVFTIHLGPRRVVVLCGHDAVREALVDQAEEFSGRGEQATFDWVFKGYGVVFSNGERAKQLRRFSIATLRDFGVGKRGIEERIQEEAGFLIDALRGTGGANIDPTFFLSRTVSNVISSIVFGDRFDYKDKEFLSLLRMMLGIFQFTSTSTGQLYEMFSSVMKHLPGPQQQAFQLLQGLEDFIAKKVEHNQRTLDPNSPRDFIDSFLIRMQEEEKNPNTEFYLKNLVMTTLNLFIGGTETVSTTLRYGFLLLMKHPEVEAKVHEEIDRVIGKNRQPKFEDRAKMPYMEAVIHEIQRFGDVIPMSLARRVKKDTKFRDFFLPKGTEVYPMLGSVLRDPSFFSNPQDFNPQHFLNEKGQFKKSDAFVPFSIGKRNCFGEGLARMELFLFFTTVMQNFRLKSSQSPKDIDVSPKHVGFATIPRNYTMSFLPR

Sequence of Platelet-activating factor receptor (P25105 whole entry): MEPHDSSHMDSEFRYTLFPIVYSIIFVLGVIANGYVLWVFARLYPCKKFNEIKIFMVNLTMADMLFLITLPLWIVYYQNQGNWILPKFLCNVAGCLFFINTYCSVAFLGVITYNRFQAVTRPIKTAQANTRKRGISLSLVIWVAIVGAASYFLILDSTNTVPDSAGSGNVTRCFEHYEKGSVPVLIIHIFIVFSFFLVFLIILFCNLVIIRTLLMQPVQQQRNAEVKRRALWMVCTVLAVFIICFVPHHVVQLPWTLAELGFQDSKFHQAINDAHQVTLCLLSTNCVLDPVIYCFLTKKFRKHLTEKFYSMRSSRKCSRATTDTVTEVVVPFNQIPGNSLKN

COc1cc(C(=O)NC2CCCNC2)cc(OC)c1OC (centres undefined) [TROXIPIDE]
Not Active: IC50 [1] | IC50 [2] | IC50 [3] | Ki [3] | IC50 [4] | IC50 [5] | Ki [5] | IC50 [6] | IC50 [7] | Ki [7]

CC(C)(C)NCC(O)c1ccc(O)c(CO)c1 (centres undefined) [ALBUTEROL]
Not Active: IC50 [1] | IC50 [2] | IC50 [3] | Ki [3] | IC50 [4] | IC50 [5] | Ki [5] | IC50 [6] | IC50 [7] | Ki [7]

CC1(C)[C@H]2CC[C@]1(C)C(=O)C2 [(-)-CAMPHOR]
Not Active: IC50 [1] | IC50 [2] | IC50 [3] | Ki [3] | IC50 [4] | IC50 [5] | Ki [5] | IC50 [6] | IC50 [7] | Ki [7]

NNc1ccccc1 [PHENYLHYDRAZINE]
Not Active: IC50 [1] | IC50 [2] | IC50 [3] | Ki [3] | IC50 [4] | IC50 [5] | Ki [5] | IC50 [6] | IC50 [7] | Ki [7]

CC[C@H]1OC(=O)[C@H](C)[C@@H](O[C@H]2C[C@@](C)(OC)[C@@H](O)[C@H](C)O2)[C@H](C)[C@@H](O[C@@H]2O[C@H](C)C[C@H](N(C)C)[C@H]2O)[C@](C)(O)C[C@@H](C)/C(=N\OCOCCOC)[C@H](C)[C@@H](O)[C@]1(C)O [ROXITHROMYCIN]
Not Active: IC50 [1] | IC50 [2] | IC50 [3] | Ki [3] | IC50 [4] | IC50 [5] | Ki [5] | IC50 [6] | IC50 [7] | Ki [7]

Nc1ccc(S(=O)(=O)Nc2ccnn2-c2ccccc2)cc1 [SULFAPHENAZOLE]
Not Active: IC50 [1] | IC50 [2] | IC50 [3] | Ki [3] | IC50 [4] | IC50 [5] | Ki [5] | IC50 [6] | IC50 [7] | Ki [7]

CCOC(=O)[C@H](CCc1ccccc1)N[C@@H](C)C(=O)N1[C@H](C(=O)O)C[C@@H]2CCC[C@@H]21
Not Active: IC50 [1] | IC50 [2] | IC50 [3] | Ki [3] | IC50 [4] | IC50 [5] | Ki [5] | IC50 [6] | IC50 [7] | Ki [7]

NCCCC[C@H](N[C@@H](CCc1ccccc1)C(=O)O)C(=O)N1CCC[C@H]1C(=O)O [LISINOPRIL ANHYDROUS]
Not Active: IC50 [1] | IC50 [2] | IC50 [3] | Ki [3] | IC50 [4] | IC50 [5] | Ki [5] | IC50 [6] | IC50 [7] | Ki [7]

Cc1ccc(C(=O)C(C)CN2CCCCC2)cc1 (centres undefined) [TOLPERISONE]
Not Active: IC50 [1] | IC50 [2] | IC50 [3] | Ki [3] | IC50 [4] | IC50 [5] | Ki [5] | IC50 [6] | IC50 [7] | Ki [7]

IVERMECTIN
Not Active: IC50 [1] | Ki [1] | IC50 [2] | Ki [2] | IC50 [3] | Ki [3] | IC50 [4] | Ki [4] | IC50 [5] | Ki [5] | IC50 [6] | Ki [6] | IC50 [7] | Ki [7]

NC(=O)c1ncn([C@@H]2O[C@H](CO)[C@@H](O)[C@H]2O)n1 [RIBAVIRIN]
Not Active: IC50 [1] | IC50 [2] | IC50 [3] | Ki [3] | IC50 [4] | IC50 [5] | Ki [5] | IC50 [6] | IC50 [7] | Ki [7]
